Assay results reported in US7442706B2, “Methods for treating sarcopenia with a growth hormone secretagogue” (priority 2006, dated 2008).
Entries after “also recorded” stand apart in the source; their conditions may differ.

Assays:
GH = test: 24-h mean GH levels, blood sampled every 10 minutes for 24 hours, chemiluminescence assay, 2-year placebo-controlled trial; type: in vivo, human; conditions: for 24-h mean GH, mean (range) fold-change / 24-h mean GH level in a person: 25 mg p.o. daily; for 24-h mean GH, mean (range) fold-change: N=43, ratio of geometric means; for 24-h mean GH level in a person: baseline 0.37
Description: Sixty-five healthy men and women (±HRT) ages 60-81 years were enrolled in a 2-year study of MK-677 (25 mg p.o. daily) or placebo. In addition to GH and IGF-I, the primary endpoints were fat-free mass (FFM), by 4-compartment model and DXA, and abdominal visceral fat (AVF) by CT. Secondary endpoints included isokinetic strength, function and quality of life (QoL); all endpoints were assessed at baseline and every 6 months, with frequent monitoring for adverse effects.
This NIH-funded study was approved by the General Clinical Research Center (GCRC) and the University of Virginia Institutional Review Boards. All subjects gave written informed consent. A two-year, double-blind, placebo-controlled modified crossover trial of once-daily administration of an oral GH secretogogue (MK-677, 25 mg) to healthy older adults was performed.
During the first year, subjects were randomized to MK-677 or placebo treatment. In each of 3 groups (23 men, 25 women on hormone replacement therapy (HRT) and 17 women not on HRT), ⅔ received MK-677 and ⅓ received placebo. At the end of year 1, the subjects who received placebo were switched to MK-677 treatment (N= 2/0 in year 2); subjects who received MK-677 for the first year were randomized to continue MK-677 (N=20) or to placebo (N=19).
Growth hormone (GH) concentrations and pulsatile characteristics. Blood samples were obtained every 10 minutes for 24 hours for measurement of GH in a sensitive chemiluminescence assay (2); endogenous GH secretory dynamics were assessed using an automated multiple-parameter deconvolution method as previously reported (1;3).
The primary outcome data for the 6- and 12-month changes in FFM and AVF as well as for IGF-I and GH were analyzed via repeated measures ANCOVA. The FFM and AVF data were analyzed on the same scale as they were measured, while the IGF-I and GH data were transformed to the natural logarithmic scale before conducting the statistical analyses so that the variance and normality assumptions of the linear model were not violated.
Since the FFM and AVF data were analyzed on the same scale as initially measured, the 6- and 12-month changes are reported as a difference between arithmetic means; changes in IGF-I and GH data analyzed on the natural algorithmic scale are reported as a ratio of geometric means.

IGF-I = test: Serum total IGF-I levels (Immulite 2000) in the 2-year placebo-controlled trial; type: in vivo, human; conditions: for IGF-I levels after withdrawal of MK-677 or switch to placebo: after crossover to placebo in year 2 or 3 and 6 months after withdrawal
Description: Sixty-five healthy men and women (±HRT) ages 60-81 years were enrolled in a 2-year study of MK-677 (25 mg p.o. daily) or placebo. In addition to GH and IGF-I, the primary endpoints were fat-free mass (FFM), by 4-compartment model and DXA, and abdominal visceral fat (AVF) by CT. Secondary endpoints included isokinetic strength, function and quality of life (QoL); all endpoints were assessed at baseline and every 6 months, with frequent monitoring for adverse effects. This NIH-funded study was approved by the General Clinical Research Center (GCRC) and the University of Virginia Institutional Review Boards. All subjects gave written informed consent. A two-year, double-blind, placebo-controlled modified crossover trial of once-daily administration of an oral GH secretogogue (MK-677, 25 mg) to healthy older adults was performed. During the first year, subjects were randomized to MK-677 or placebo treatment. In each of 3 groups (23 men, 25 women on hormone replacement therapy (HRT) and 17 women not on HRT), ⅔ received MK-677 and ⅓ received placebo. At the end of year 1, the subjects who received placebo were switched to MK-677 treatment (N= 2/0 in year 2); subjects who received MK-677 for the first year were randomized to continue MK-677 (N=20) or to placebo (N=19). Assays and Insulin Sensitivity. Plasma glucose was measured on a Beckman analyzer and insulin and total IGF-I were measured in the GCRC Core Laboratory on an Immulite 2000 (Diagnostic Products Corporation, Los Angeles, Calif.). Additional safety laboratory tests were performed by standard methods in the UVA Clinical Laboratories. Fasting insulin and glucose were used to estimate insulin sensitivity by the Quicki method (4). The primary outcome data for the 6- and 12-month changes in FFM and AVF as well as for IGF-I and GH were analyzed via repeated measures ANCOVA. The FFM and AVF data were analyzed on the same scale as they were measured, while the IGF-I and GH data were transformed to the natural logarithmic scale before conducting the statistical analyses so that the variance and normality assumptions of the linear model were not violated. Since the FFM and AVF data were analyzed on the same scale as initially measured, the 6- and 12-month changes are reported as a difference between arithmetic means; changes in IGF-I and GH data analyzed on the natural algorithmic scale are reported as a ratio of geometric means.

[1] = Function tests and quality of life questionnaires; type: in vivo, human; conditions: year 1
Description: Quality of Life Assessments. Subjects completed 4 questionnaires to assess quality of life and general well-being: the 20-item Short Form Health Survey (SF-20); Beck Depression Inventory (BDI); Pittsburgh Sleep Quality Index (PSQI); and the Body Cathexis Scale (BCS).
Function. Function tests included walking 30 meters as quickly as possible, walking as far as possible in 6 minutes, descending and ascending 4 flights of stairs and rising and sitting 5 times from an armless chair with an 18″ seat height.
Correction for Height and Gender. All strength and function measurements were analyzed per kg of skeletal muscle (ASM). Baseline arm ASM and leg ASM were used for shoulder and knee strength, respectively; baseline TASM (sum of arms and legs) was used for the function tests.
With regard to the quality of life data, a Factor Analysis of the different scales of the questionnaires was performed to create an overall well-being factor (16). Initially, study subjects were used as their own internal controls and assessed if there was change over time in overall well being. Using the hierarchical linear modeling (HLM), a growth curve analysis was conducted, testing within-person linear and curvilinear change in overall well being over time.

[2] = Glucose metabolism: insulin sensitivity by Quicki, hemoglobin A1c; type: in vivo, human
Description: Assays and Insulin Sensitivity. Plasma glucose was measured on a Beckman analyzer and insulin and total IGF-I were measured in the GCRC Core Laboratory on an Immulite 2000 (Diagnostic Products Corporation, Los Angeles, Calif.). Additional safety laboratory tests were performed by standard methods in the UVA Clinical Laboratories. Fasting insulin and glucose were used to estimate insulin sensitivity by the Quicki method (4).
In each of the 2 years, volunteers were seen monthly the first 3 months and every 3 months thereafter for a physical examination, documentation of medications and vital signs, routine laboratory tests and detailed questioning about possible side effects. Fasting blood glucose and hemoglobin Alc (HBAlc) were monitored for possible changes with MK-677 treatment, since increased blood glucose had been observed in previous studies (11;15).

quadriceps muscle = conditions: canines during remobilization; cited from earlier work

In the case of `CC(C)(N)C(=O)N[C@H](COCc1ccccc1)C(=O)N1CCC2(CC1)CN(S(C)(=O)=O)c1ccccc12.CS(=O)(=O)O` [MK-677, N-[1(R)-[(1,2-dihydro-1-methanesulfonylspiro[3H-indole-3,4′-piperidin]-1′-yl)carbonyl]-2-(phenylmethyloxy)ethyl]-2-amino-2-methylpropanamide methanesulfonate], the “24-h mean GH, mean (range) fold-change” value (GH; 6 months) is reported as 1.9 (1.6-2.2) fold, the “24-h mean GH level in a person” value (GH; 6 months) is reported as 1.0 µg/L and the “24-h mean GH, mean (range) fold-change” value (GH; 12 months) is reported as 1.8 (1.6-2.0) fold. For the same compound, the “24-h mean GH level in a person” value (GH; 12 months) was 0.86 µg/L, the “Deconvolution analysis of the increase in GH” value (GH; secretion per peak vs. peak frequency) was “increased secretion per peak” and the “IGF-I levels after withdrawal of MK-677 or switch to placebo” value (IGF-I; listed as Mk-677, methanesulfonate) was “fell to baseline levels”. The “IGF-I levels after withdrawal of MK-677 or switch to placebo” value (IGF-I; methanesulfonate) was “returned to pre-treatment levels”, the “fold increase in IGF-I levels” value (IGF-I; at 6 and 12 months, 25 mg p.o. daily, N=43) was 1.5 fold and the “IGF-I levels relative to normal range for young adults aged 21-25 (116-358 μg/L)” value (IGF-I; first year, 25 mg p.o. daily, methanesulfonate) was “levels in the young adult normal range; also recorded: increased into the normal range for young adults”. The “function or QoL” value [1] was “did not result in changes”, the “Insulin resistance estimated by Quicki” value ([2]; after 6 and 12 months of treatment, vs. placebo) was “increased significantly” and the “hemoglobin A1c levels” value ([2]; most subjects on MK-677) was “slight elevations”. For the same compound, the “serum insulin-like growth factor-1 levels” value (quadriceps muscle) was “elevated levels of serum insulin-like growth factor-1” and the “size and strength of the quadriceps muscle” value (quadriceps muscle) was “increased the size and strength of the quadriceps muscle”.
